According to PubChem BioAssay (NCI):
Where “and” joins values, the source holds several entries; their conditions need not be identical. Identical values can stand only once.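 Following 48 hours of exposure in 96-well plates, responses at five concentrations were used to interpolate endpoints linearly. GI50 = concentration required for 50% inhibition of growth. Definition used: TGI = concentration required for complete inhibition of growth.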

How the values were obtained:
Experiment in all cases: NCI tumour cell line growth inhibition, 48 h
OVCAR-4 ovarian = tested on: OVCAR-4 ovarian
HL-60(TB) leukemia = tested on: HL-60(TB) leukemia
KM20L2 colon = tested on: KM20L2 colon
RXF 393 renal = tested on: RXF 393 renal
SK-MEL-2 melanoma = tested on: SK-MEL-2 melanoma
UACC-257 melanoma = tested on: UACC-257 melanoma
ACHN renal = tested on: ACHN renal
NCI-H460 lung = tested on: NCI-H460 lung
M19-MEL melanoma = tested on: M19-MEL melanoma
MDA-MB-231 breast = tested on: MDA-MB-231 breast

SMILES	TGI (OVCAR-4 ovarian)	TGI (HL-60(TB) leukemia)	TGI (KM20L2 colon) [µM]	TGI (RXF 393 renal)	TGI (SK-MEL-2 melanoma)	TGI (UACC-257 melanoma)	TGI (ACHN renal) [µM]	TGI (NCI-H460 lung) [µM]	TGI (M19-MEL melanoma) [µM]	GI50 (OVCAR-4 ovarian)	GI50 (HL-60(TB) leukemia)	GI50 (MDA-MB-231 breast)	TGI (MDA-MB-231 breast)	GI50 (RXF 393 renal)	GI50 (SK-MEL-2 melanoma)	GI50 (UACC-257 melanoma)	GI50 (ACHN renal)	GI50 (NCI-H460 lung)	GI50 (KM20L2 colon) [µM]	GI50 (M19-MEL melanoma) [µM]
COC(=O)c1cccn1C(=O)n1cccc1	> 100 µM	> 100 µM	> 100	> 100 µM	> 100 µM	> 100 µM	> 100	> 100	> 100											
Oc1ccc2ccccc2c1N=Nc1ccsc1	> 100 µM	> 100 µM	> 100	> 100 µM	> 100 µM	> 100 µM	> 100	> 100	> 100											
CCOC(=O)N1CCC(=O)C(CNC23CC4CC(CC(C4)C2)C3)C1 (stereo unspecified)	29 µM	> 100 µM	> 100	33.2 µM	> 100 µM	42.4 µM	34.8	> 100	35.3											
O=c1ncc(F)cn1C1OC(CO)C(O)C1O (stereo unspecified)	> 100 µM	> 52 µM	> 70.6	> 100 µM	> 46.5 µM	> 55.3 µM	> 100	> 73	> 54											
C[C@@]12CCC[C@@](C)(C(=O)O)C1CC[C@]13C[C@@](O)(CO)[C@](O)(CCC12)C3 (stereo partly specified)	> 100 µM	> 100 µM		> 100 µM	> 100 µM	> 100 µM	> 100	> 100		> 100 µM	> 100 µM	> 100 µM	> 100 µM	> 100 µM	> 100 µM	> 100 µM	> 100 µM	> 100 µM		
[N-]=[N+]=NCCCCCC(=O)OC(C(=O)c1ccccc1)c1cccc(OCC(=O)NCCOCCOCCNC(=O)CCCC[C@@H]2SC[C@@H]3NC(=O)N[C@@H]32)c1 (stereo partly specified)	> 100 µM	> 100 µM		> 100 µM	> 100 µM	> 100 µM	> 100	> 100		> 100 µM	27.8 µM	44 µM	> 100 µM	56.3 µM	> 100 µM	> 100 µM	> 100 µM	> 100 µM		
c1ccc(CN2COc3c(ccc4c3OCN(Cc3ccccc3)C4)C2)cc1	> 100 µM	7.52 µM		> 100 µM	> 100 µM	6.53 µM	> 100	> 100		0.333 µM	2.33 µM	0.564 µM	> 100 µM	0.41 µM	3.98 µM	0.763 µM	0.316 µM	0.399 µM		
CC1CCCC(C(O)CC2CC(=O)NC(=O)C2)C1O (stereo unspecified)	> 100 µM	> 100 µM		> 100 µM	> 100 µM	> 100 µM	> 100	> 100					> 100 µM							
NC(=O)/N=C1/CCC2C3CCCC2C13	> 100 µM	> 100 µM	> 100	> 100 µM	> 100 µM	> 100 µM	> 100	> 100												
S=C(Nc1ccc(-c2nc3ccccc3[nH]2)cc1)Nc1ccc(-c2nc3ccccc3[nH]2)cc1	> 100 µM	> 100 µM		> 100 µM	> 100 µM	> 100 µM	> 100	> 100		> 100 µM	> 100 µM	41.8 µM	> 100 µM	> 100 µM	> 100 µM	> 100 µM	> 100 µM	65 µM		
CS(=O)(=O)CCc1cccc(C(=O)c2cnn(-c3ccc(F)cc3)c2N)c1	> 25 µM	> 23.8 µM		> 25 µM	> 25 µM	> 25 µM	> 25	> 25		> 25 µM	> 9.84 µM	> 25 µM	> 25 µM	> 25 µM	> 25 µM	> 25 µM	> 25 µM	> 25 µM		
CC(=O)c1c(C)[nH]c(-c2nc3ccc(N4CCN(C)CC4)cc3[nH]2)c1-c1ccc(N(C)C)cc1	33.6 µM	0.596 µM		2.08 µM	17.6 µM	11 µM	12.6	> 56.2		1.17 µM	0.118 µM	0.645 µM	16.9 µM	0.486 µM	2.58 µM	1.03 µM	0.773 µM	2.76 µM		
O=[P+](O)c1ccsc1		> 100 µM	> 100	> 100 µM			> 100	> 100	> 100											
O=C(Cc1ccc(F)c(F)c1)Nc1cc(C2(C(F)(F)F)CC2)nn1Cc1ccccc1	> 15 µM	8.33 µM		12.2 µM	> 15 µM	12.4 µM	14.2	7.58		3.34 µM	3.43 µM	3.05 µM	7.25 µM	2.65 µM	4.4 µM	3.61 µM	3.85 µM	3.16 µM		
C[C@]12CC/C(=N\O)C=C1CC[C@@H]1C2CC[C@@]2(C)C1CC[C@@H]2OC1CCCCO1 (stereo partly specified)	31.9 µM		30.4	50.5 µM	30.4 µM	34.6 µM	30.3	45.7	35.1											
CC(C)([NH-])CO.CC(C)([NH-])CO.[Cl][Cd][Cl]	25.8 µM	55.8 µM	79.7		29.8 µM	> 100 µM	> 100	24.6	38.3	12.4 µM	26.9 µM				15.6 µM	> 100 µM	> 100 µM	11.3 µM	30.9	16.9
CCN(CC)CCCNCc1cc(-c2ccccc2)nc2ccccc12	> 100 µM	14.9 µM		39.9 µM	22.9 µM	18.3 µM	> 100	> 100		6.91 µM	1.62 µM	3.99 µM	24 µM	6.99 µM	10.2 µM	5.11 µM	33.3 µM	33.2 µM		

SMILES	TGI (OVCAR-4 ovarian)	TGI (HL-60(TB) leukemia)	TGI (KM20L2 colon) [µM]	TGI (RXF 393 renal)	TGI (SK-MEL-2 melanoma)	TGI (UACC-257 melanoma)	TGI (ACHN renal) [µM]	TGI (NCI-H460 lung) [µM]	TGI (M19-MEL melanoma) [µM]	GI50 (OVCAR-4 ovarian)	GI50 (HL-60(TB) leukemia)	GI50 (MDA-MB-231 breast)	TGI (MDA-MB-231 breast)	GI50 (RXF 393 renal)	GI50 (SK-MEL-2 melanoma)	GI50 (UACC-257 melanoma)	GI50 (ACHN renal)	GI50 (NCI-H460 lung)	GI50 (KM20L2 colon) [µM]	GI50 (M19-MEL melanoma) [µM]
Cn1cnc([N+](=O)[O-])c1Sc1nccn1-c1cccc2ccccc12	95.3 µM		> 100		37.5 µM	> 100 µM	94.2	73.1	98.9											
NCCCCCCCn1c2c(c3ccccc3c1=O)C(=O)c1ccccc1-2	6.58 µM	2.87 µM		3.39 µM	5.68 µM	4.09 µM	3.47	2.59		2.34 µM	1.38 µM	1.85 µM	3.79 µM	1.57 µM	2.33 µM	2.19 µM	1.6 µM	0.478 µM		
CNC(=O)c1ccccc1Nc1nc(Nc2cc(OC)c(OC)c(OC)c2)ncc1Br	2.4 µM	0.181 µM		0.0712 µM	0.0499 µM	3.47 µM	15.6	1.37		0.0287 µM	0.0245 µM	0.033 µM	0.263 µM	0.0154 µM	0.0171 µM	0.0328 µM	0.0209 µM	0.0291 µM		
CCN(CC)CC(O)CNc1c2ccc([N+](=O)[O-])cc2nc2cc(OC)c(OC)cc12 (stereo unspecified)	0.574 µM	6.81 µM		1.86 µM	0.659 µM	3.83 µM	2.36	0.669		0.162 µM	2.06 µM	0.244 µM	0.883 µM	0.469 µM	0.256 µM	1.45 µM	0.396 µM	0.185 µM		
NCC1OC(n2cnc3c(N)ncnc32)CC1O (stereo unspecified)	> 100 µM	> 100 µM		> 100 µM	> 100 µM	> 100 µM	> 100	> 100					> 100 µM							
COc1cc(C(=O)N2CCN(c3ncnc4ccccc34)CC2)c(N)cc1OCc1ccccc1	47 µM	47.7 µM		27 µM	41.3 µM	48.5 µM	37.6	26.1		13.2 µM	20.4 µM	13.9 µM	35.3 µM	13.1 µM	16.5 µM	21.7 µM	14 µM	11.3 µM		
COc1cc(N(C)C)c(OC)cc1/C=C\c1ccnc2ccccc12	> 10 µM	7.99 µM		> 10 µM	8.03 µM	> 10 µM	> 10	> 10					> 10 µM							
C=C1CCC2C3(C)COC(c4ccccc4)OC3CCC2(C)C1/C=C/C1=CCOC1=O (stereo unspecified)	16.3 µM	3.91 µM		8.65 µM	15.9 µM	> 100 µM	22	35.9		3.63 µM	1.27 µM	12.5 µM	43 µM	2.93 µM	4.81 µM	63.4 µM	8.74 µM	9.29 µM		
Cc1nc2ccccc2c(/C=C/c2ccc(Cl)cc2)c1C(=O)/C=C/c1ccc(C(F)(F)F)cc1	2.61 µM	1.38 µM		0.988 µM	2.17 µM	2.93 µM	0.594	1.89		1.26 µM	0.36 µM	0.301 µM	0.947 µM	0.322 µM	0.627 µM	1.06 µM	0.241 µM	0.642 µM		
O=C(O)C1(C(=O)O)CCC1.[NH2-].[NH2-].[Pt+2]	221 µM and > 250 µM	201 µM and 191 µM	> 235	167 µM and > 250 µM	244 µM and > 250 µM	250 µM and > 250 µM	> 239	206		84 µM and 120 µM	29.5 µM and 12.7 µM	247 µM and > 250 µM	> 250 µM	76 µM and 178 µM	161 µM and > 250 µM	129 µM and > 229 µM	81.2 µM	37.5 µM	212	
C[n+]1c2cc(N)ccc2cc2ccc(N)cc21		9.76 µM [middle of 4 runs]		3.59 µM [middle of 4 runs]	5 µM [middle of 4 runs]	3.91 µM [middle of 4 runs]				1.34 µM [middle of 4 runs]	2.83 µM [middle of 4 runs]	1.41 µM [middle of 4 runs]	9.68 µM [middle of 4 runs]		1.47 µM [middle of 4 runs]	1.79 µM [middle of 4 runs]	1 µM [middle of 4 runs]	460 nM [middle of 4 runs]		
CN1C(=O)C2C3C=C4c5ccccc5N(c5ccccc5)C4(C2C1=O)[C@H]1C(=O)N(C)C(=O)[C@@H]31 (stereo partly specified)	> 100 µM	> 100 µM	> 100		> 100 µM	> 100 µM	> 100	> 100	> 100											
C/C1=C/C(=O)O[C@@H]2C[C@@H](CC[C@H](C)/C=C\C=C\CC1)O[C@@](O)([C@@H]1CSC(=O)N1)C2	> 10 µM	> 10 µM		0.752 µM	> 10 µM	> 10 µM	> 10	> 10					> 2.65 µM							
CC12CCC3(OCCO3)C(OC(=O)c3ccccc3)=C1CCC21OCCO1 (stereo unspecified)	> 100 µM	> 100 µM	> 100	> 100 µM		> 100 µM	> 100	> 100	> 100											
COc1cc(NCCCN=C(N)NC(N)=NC(C)C)c2ncccc2c1	1.64 µM	31.8 µM		> 91.2 µM	10.1 µM	16.5 µM	> 100	> 79.5		0.0588 µM	10.8 µM	1.96 µM	14.3 µM	22.8 µM	2.68 µM	4.31 µM	> 82.8 µM	14.6 µM		
O=C(COc1cc(O)c2c(=O)cc(-c3ccccc3)oc2c1)Nc1ccccc1C(F)(F)F	5.94 µM	> 100 µM		6.34 µM	38 µM	> 100 µM	9.63	6.68		2.45 µM	> 100 µM	2.04 µM	5.26 µM	2.21 µM	15.1 µM	> 100 µM	2.91 µM	2.59 µM		
COCc1cc(C(=O)Nc2cc([C@H]3CC[C@@H](OC(=O)NC(C)C)C3)[nH]n2)n(C)n1	77.2 µM	11.4 µM		9.11 µM	27.2 µM	> 100 µM	> 100	> 100		4.89 µM	2.55 µM	16.6 µM	91.1 µM	2.93 µM	10.6 µM	25.9 µM	11.1 µM	5.64 µM		
